# Results reported in patent US10117950B2, “Compounds and compositions for the treatment of ocular disorders” (Graybug Vision, Inc., priority 2015, dated 2018).
# Like-named read-outs stand apart in the source and are kept apart here.
# Legend:
# [1] = In vitro stability of brinzolamide and dorzolamide NCEs (RP-HPLC); conditions: PBS pH 7, 10% DMSO; for in vitro stability / degradation kinetics: 37° C. and accelerated conditions, 14-19 days; for primary compound remaining: 37° C.
# Protocol: The samples were incubated at 37° C. or 50° C. to simulate physiological and accelerated degradation conditions, respectively. At various time points, 100 μL of the solution was collected, diluted 10-fold with MeCN+0.1% formic acid, filtered through a 0.2 μm nylon syringe filter and analyzed by RP-HPLC.
# [2] = molecular target: T1, bovine erythrocyte carbonic anhydrase II (Bos taurus, UniProt P00921); assay: Carbonic anhydrase II inhibition, colorimetric 4-nitrophenyl acetate hydrolysis; format: biochemical; conditions: for IC50: n = 2
# T1 construct: purified bovine erythrocyte carbonic anhydrase II; from tissue; host or cells: bovine erythrocytes
# T1 sequence (P00921 whole entry): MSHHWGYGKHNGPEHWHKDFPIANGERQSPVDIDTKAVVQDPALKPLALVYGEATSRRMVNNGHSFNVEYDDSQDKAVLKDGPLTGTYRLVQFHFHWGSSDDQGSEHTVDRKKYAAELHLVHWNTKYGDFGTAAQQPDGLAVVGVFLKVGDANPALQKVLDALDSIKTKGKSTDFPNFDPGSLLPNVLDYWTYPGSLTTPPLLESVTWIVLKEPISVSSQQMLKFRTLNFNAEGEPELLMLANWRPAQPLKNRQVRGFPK
# Protocol: The catalytic activity of carbonic anhydrase II was assessed by a colorimetric method, in which 4-nitrophenyl acetate is hydrolyzed to acetate and nitrophenolate. The nitrophenolate ionizes to generate a bright yellow anion that is readily detected by measuring its absorbance at 350-400 nm. […] Acetazolamide was added as a positive control and 100% DMSO was added as a negative control. The reaction was initiated with the addition of 20 μL of 4-nitrophenyl acetate (0.7 mM in ethanol).
# [3] = Determination of drug solubility; format: physicochemical; conditions: thermodynamic from solid
# Protocol: For each test, approximately 5-10 mg was transferred to a 10 mL glass vial. Aqueous or organic solvent was added to each vial to achieve an overall concentration of 50 mg/mL. After vortexing aggressively for 2-3 minutes and sonicating in a bath sonicator for 5 minutes, undissolved drug was spun down at 1200 rpm for 5 minutes to generate a pellet. The supernatant was collected and filtered through a 0.2 μm nylon syringe filter into HPLC vials for drug content analysis. Drug concentration was determined by comparing against a standard calibration curve.
# [4] = DCM, organic solvent or mixture, read-out: Solubility DCM
# [5] = DMSO, organic solvent or mixture, read-out: Solubility DMSO
# [6] = water / aqueous solvent, read-out: Solubility Water
SMILES,IC50 [2] [nM],primary compound remaining ([1]; 14 days),"solubility [3, 4] [mg/mL]","solubility [3, 5] [mg/mL]","solubility [3, 6] [mg/mL]",primary compound remaining ([1]; day 7),carbonic anhydrase inhibitory activity [2],in vitro stability / degradation kinetics [1]
"CCN[C@H]1CN(CCCOC)S(=O)(=O)c2sc(S(=O)(=O)NC(=O)[C@H](C)OC(=O)[C@H](C)OC(=O)[C@H](C)O)cc21 [34-2, brinzolamide-PLA (n=3)]",21.5 ± 11.2,–,> 50,> 50,> 50,approximately 2.7%,–,minimal degradation to the parent compound
"CCN[C@H]1CN(CCCOC)S(=O)(=O)c2sc(S(=O)(=O)NC(=O)[C@H](C)OC(=O)[C@H](C)OC(=O)[C@H](C)OC(C)=O)cc21 [36-1, brinzolamide-acetyl PLA (n=3)]",–,–,> 50,> 50,> 50,approximately 15.4%,–,–
"CCN[C@H]1CN(CCCOC)S(=O)(=O)c2sc(S(=O)(=O)NC(=O)[C@H](C)OC(=O)[C@H](C)OC(=O)[C@H](C)OC(=O)[C@H](C)OC(C)=O)cc21 [37-1, brinzolamide-acetyl PLA (n=4)]",41.5 ± 11.2,–,> 50,> 50,< 1,–,–,–
"CCN[C@H]1CN(CCCOC)S(=O)(=O)c2sc(S(=O)(=O)NC(=O)[C@H](C)OC(=O)[C@H](C)OC(=O)[C@H](C)OC(=O)[C@H](C)OC(=O)[C@H](C)OC(C)=O)cc21 [38-1, brinzolamide-acetyl PLA (n=5)]",102 ± 31.4,–,> 50,> 50,< 1,–,–,–
"CCN[C@H]1CN(CCCOC)S(=O)(=O)c2sc(S(=O)(=O)NC(=O)[C@H](C)OC(=O)[C@H](C)OC(=O)[C@H](C)OC(=O)[C@H](C)OC(=O)[C@H](C)OC(=O)[C@H](C)OC(C)=O)cc21 [39-1, brinzolamide-acetyl PLA (n=6)]",172 ± 35.6,–,> 50,> 50,< 1,–,–,–
"CCN[C@H]1CN(CCCOC)S(=O)(=O)c2sc(S(=O)(=O)NC(=O)[C@H](C)OC(=O)[C@H](C)OC(=O)[C@H](C)OC(C)(C)C)cc21 [40-1, brinzolamide-t-butyl PLA (n=3)]",–,–,–,–,–,–,–,significantly slower than its acetylated (36-1) or uncapped counterpart (34-2)
"CCN[C@H]1C[C@H](C)S(=O)(=O)c2sc(S(=O)(=O)NC(=O)[C@H](C)OC(=O)[C@H](C)OC(=O)[C@H](C)OC(=O)CCC(=O)Oc3ccc4c(c3)/C(=C/c3[nH]c(C)c(C(=O)NCCN(CC)CC)c3C)C(=O)N4)cc21 [56-5, (3Z)-3-[(4-{[2-(Diethylamino)ethyl]carbamoyl}-3,5-dimethyl-1H-pyrrol-2-yl)methylidene]-2-oxo-2,3-dihydro-1H-indol-5-yl 1-(2S)-1-{[(2S)-1-[(1S)-1-({[(2S,4S)-4-(ethylamino)-2-methyl-1,1-dioxo-2H,3H,4H-1λ^6-thieno[2,3-b]thiopyran-6-yl]sulfonyl}carbamoyl)ethoxy]-1-oxopropan-2-yl]oxy}-1-oxopropan-2-yl butanedioate]",184 ± 44.8,–,–,> 50,< 1,–,lowest inhibitory activity,–

# Further lines, with some results ahead:
IC50 [2] [nM],primary compound remaining ([1]; 14 days),"solubility [3, 4] [mg/mL]","solubility [3, 5] [mg/mL]","solubility [3, 6] [mg/mL]",primary compound remaining ([1]; day 7),carbonic anhydrase inhibitory activity [2],SMILES,in vitro stability / degradation kinetics [1]
3.32 ± 2.71,–,–,–,–,–,–,"CCN[C@H]1C[C@H](C)S(=O)(=O)c2sc(S(=O)(=O)NC(=O)[C@H](C)O)cc21 [19-3, dorzolamide-PLA (n=1)]",the most stable
5.78 ± 3.78,> 98%,–,–,–,–,–,"CCN[C@H]1CN(CCCOC)S(=O)(=O)c2sc(S(=O)(=O)NC(=O)[C@H](C)O)cc21 [32-3, brinzolamide-PLA (n=1)]",slowest
10.7 ± 7.27,approximately 53%,> 50,> 50,> 50,–,–,"CCN[C@H]1CN(CCCOC)S(=O)(=O)c2sc(S(=O)(=O)NC(=O)[C@H](C)OC(=O)[C@H](C)O)cc21 [33-2, brinzolamide-PLA (n=2)]",–
